For test [1], the target named is T1, IPR (isopiperitenone reductase) (Mentha x piperita, UniProt Q6WAU1).
T1 construct: recombinant; NADP+ scavenged from host cells; catalytic Glu238
The test is described as follows: X-ray crystal structure. It counts as binding.

For test [2], the target named is T2, MNMR ((−)‐menthone:(+)‐neomenthol reductase) (Mentha x piperita, UniProt Q06ZW2).
T2 construct: recombinant; catalytic Tyr244
The test is described as follows: X-ray crystal structure (soaking). It counts as binding. As to conditions: coenzyme site.

T1 sequence (Q6WAU1 whole entry): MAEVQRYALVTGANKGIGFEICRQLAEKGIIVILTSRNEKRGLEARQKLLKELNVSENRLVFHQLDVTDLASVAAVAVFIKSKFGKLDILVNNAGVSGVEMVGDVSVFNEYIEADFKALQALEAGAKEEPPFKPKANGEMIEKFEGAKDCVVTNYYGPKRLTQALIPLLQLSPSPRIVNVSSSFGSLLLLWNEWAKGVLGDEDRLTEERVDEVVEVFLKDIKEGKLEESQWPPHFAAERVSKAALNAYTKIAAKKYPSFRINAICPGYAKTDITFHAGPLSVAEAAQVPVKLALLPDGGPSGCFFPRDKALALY
T2 sequence (Q06ZW2 entry or part of it): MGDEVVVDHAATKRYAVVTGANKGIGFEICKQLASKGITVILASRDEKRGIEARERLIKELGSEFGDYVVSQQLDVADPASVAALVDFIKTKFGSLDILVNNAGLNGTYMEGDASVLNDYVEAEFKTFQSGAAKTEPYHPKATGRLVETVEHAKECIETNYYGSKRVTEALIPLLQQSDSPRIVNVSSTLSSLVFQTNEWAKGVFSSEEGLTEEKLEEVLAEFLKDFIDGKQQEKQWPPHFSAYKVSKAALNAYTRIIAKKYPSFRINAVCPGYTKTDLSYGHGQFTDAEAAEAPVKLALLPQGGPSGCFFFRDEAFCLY

Take `CC1=C(C=O)C(C)(C)CCC1` [β‐cyclocitral]: the X-ray crystal structure entry in test [1] (active site, non-substrate, with NADP+) was “The IPR–β‐cyclocitral co‐crystal structure shows the ligand binds in a non‐active conformation”. `NC(=O)c1ccc[n+]([C@@H]2O[C@H](COP(=O)(O)OP(=O)(O)OC[C@H]3O[C@@H](n4cnc5c(N)ncnc54)[C@H](OP(=O)(O)O)[C@@H]3O)[C@@H](O)[C@H]2O)c1` [NADP^+]: in test [1] (scavenged from expression host), the X-ray crystal structure result is on record as “clear density in the F0−Fc map for NADP^+”. Moreover, the “X-ray crystal structure (soaking)” value in test [2] is given as “A coenzyme‐bound MNMR structure was obtained by soaking crystals with NADP^+”.

Values taken from article PMC4988499, “Pinpointing a Mechanistic Switch Between Ketoreduction and “Ene” Reduction in Short‐Chain Dehydrogenases/Reductases” (Angewandte Chemie (Weinheim an Der Bergstrasse, Germany), 2016).
